Test results from ChEMBL document CHEMBL4765295, “Synthesis, pharmacological profile and 2D-QSAR studies of curcumin-amino acid conjugates as potential drug candidates” (Eur J Med Chem, 2020).
≈ marks a conversion by molar mass, not a printed value. Where “and” joins values, the source holds several entries; their conditions need not be identical. Equal values may be shown once.

How the values were obtained:
[1] = Ulcerogenic activity in fasted albino mouse assessed as average number of ulcers in gastric mucosa at 10 mg/kg, po for 3 days (reference value: 0); assay type: toxicity, organism-based; conditions: in vivo, 72 h, time 3 day
Splenocyte [2] = test: Immunomodulatory activity in Swiss albino mouse splenocytes assessed as cell viability at 10 uM by measuring inhibition of stimulation index incubated for 72 hrs in presence of mitogenic stimulus phytohaemagglutinin by MTT assay relative to indomethacin; assay type: functional; conditions: read-out: Activity
Splenocyte [3] = test: Immunomodulatory activity in Swiss albino mouse splenocytes assessed as cell viability at 10 uM by measuring stimulation index incubated for 72 hrs in presence of mitogenic stimulus phytohaemagglutinin by MTT assay (reference value: 1.00 +/- 0.24); assay type: functional
Rattus norvegicus [4] = test: Antiinflammatory activity in Wistar rat model of carrageenan-induced paw edema assessed as reduction in thickness of paw edema at 10 mg/kg, ip pretreated for 1 hr followed by carrageenan challenge and measured after 24 hrs (reference value: 0.83 +/-0.08 mm); assay type: functional; conditions: time 25 hrs
Rattus norvegicus [5] = test: Anti-inflammatory activity in Wistar rat assessed as inhibition of carrageenan-induced paw edema at 10 mg/kg, ip pretreated for 1 hr followed by carrageenan challenge and measured after 2 hr relative to control (reference value: 0.00 +/-0.03 %); assay type: functional; conditions: time 3 hrs
Staphylococcus aureus = test: Antibacterial activity against Staphylococcus aureus ATCC 25923 incubated for 18 hrs by agar dilution method; assay type: functional
Mus musculus [6] = test: Analgesic activity in albino mouse assessed as forepaw licking/jumping latency time at 10 mg/kg, ip measured after 60 mins by hot plate test (reference value: 3.42 +/- 0.03 sec); assay type: functional; conditions: 1 h
Rattus norvegicus [7] = test: Anti-inflammatory activity in Wistar rat assessed as inhibition of carrageenan-induced paw edema at 10 mg/kg, ip pretreated for 1 hr followed by carrageenan challenge and measured after 4 hr relative to indomethacin; assay type: functional; conditions: time 5 hrs
Mus musculus [8] = test: Analgesic activity in albino mouse assessed as protection at 10 mg/kg, ip measured after 30 mins by hot plate test (reference value: 0 %); assay type: functional; conditions: 0.5 h
Pseudomonas aeruginosa = test: Antibacterial activity against Pseudomonas aeruginosa ATCC 27853 incubated for 18 hrs by agar dilution assay; assay type: functional
Mus musculus [9] = test: Analgesic activity in albino mouse assessed as forepaw licking/jumping latency time at 10 mg/kg, ip measured after 120 mins by hot plate test (reference value: 2.62 +/- 0.06 sec); assay type: functional; conditions: 2 h
[10] = Ulcerogenic activity in fasted albino mouse assessed as incidence of gastric ulceration at 10 mg/kg, po for 3 days (reference value: 0 %); assay type: toxicity, organism-based; conditions: in vivo, 72 h, time 3 day
Rattus norvegicus [11] = test: Antiinflammatory activity in Wistar rat model of carrageenan-induced paw edema assessed as reduction in thickness of paw edema at 10 mg/kg, ip pretreated for 1 hr followed by carrageenan challenge and measured after 3 hrs (reference value: 1.79 +/-0.07 mm); assay type: functional; conditions: time 4 hrs
[12] = Ulcerogenic activity in fasted albino mouse assessed as ulcer index in gastric mucosa at 10 mg/kg, po for 3 days (reference value: 0); assay type: toxicity, organism-based; conditions: in vivo, 72 h, time 3 day
Rattus norvegicus [13] = test: Antiinflammatory activity in Wistar rat model of carrageenan-induced paw edema assessed as reduction in thickness of paw edema at 10 mg/kg, ip pretreated for 1 hr followed by carrageenan challenge and measured after 4 hrs (reference value: 1.40 +/-0.10 mm); assay type: functional; conditions: time 5 hrs
Rattus norvegicus [14] = test: Anti-inflammatory activity in Wistar rat assessed as inhibition of carrageenan-induced paw edema at 10 mg/kg, ip pretreated for 1 hr followed by carrageenan challenge and measured after 24 hr relative to control (reference value: 0.00 +/-0.3 %); assay type: functional; conditions: time 25 hrs
Mus musculus [15] = test: Analgesic activity in albino mouse assessed as forepaw licking/jumping latency time at 10 mg/kg, ip measured after 30 mins by hot plate test (reference value: 5.02 +/- 0.09 sec); assay type: functional; conditions: 0.5 h
Mus musculus [16] = test: Analgesic activity in albino mouse assessed protection against acetic acid-induced abdominal writhing at 10 mg/kg, ip pretreated for 1 hr followed by acetic acid challenge and measured starting 5 mins post acetic acid challenge for 10 mins relative to indomethacin; assay type: functional; conditions: time 75 min, 1.25 h
Candida albicans = test: Antifungal activity against Candida albicans incubated for 18 to 24 hrs by CLSI method; assay type: functional; conditions: time 18-24 hrs
Peritoneal macrophage [17] = test: Antiinflammatory activity in […] mouse Peritoneal macrophages assessed as inhibition of LPS-induced NO production at 10 uM preincubated for 1 hr followed by LPS stimulation measured after 24 hrs by Griess method relative to control (reference value: 0.0 %); assay type: functional; parameters: scale not given: the % may be the effect or the level left; conditions: time 25 hrs
Rattus norvegicus [18] = test: Anti-inflammatory activity in Wistar rat assessed as inhibition of carrageenan-induced paw edema at 10 mg/kg, ip pretreated for 1 hr followed by carrageenan challenge and measured after 1 hr relative to control (reference value: 0.00 +/-0.02 %); assay type: functional; conditions: time 2 hrs
Mus musculus [19] = test: Analgesic activity in albino mouse assessed as protection at 10 mg/kg, ip measured after 90 mins by hot plate test (reference value: 0 %); assay type: functional; conditions: 1.5 h
Streptococcus pyogenes = test: Antibacterial activity against Streptococcus pyogenes ATCC 19615 incubated for 18 hrs by agar dilution method; assay type: functional
Rattus norvegicus [20] = test: Antiinflammatory activity in Wistar rat model of carrageenan-induced paw edema assessed as reduction in thickness of paw edema at 10 mg/kg, ip pretreated for 1 hr followed by carrageenan challenge and measured after 2 hrs (reference value: 2.06 +/-0.09 mm); assay type: functional; conditions: time 3 hrs
Rattus norvegicus [21] = test: Antiinflammatory activity in Wistar rat model of carrageenan-induced paw edema assessed as reduction in thickness of paw edema at 10 mg/kg, ip pretreated for 1 hr followed by carrageenan challenge and measured after 1 hr (reference value: 2.41 +/-0.05 mm); assay type: functional; conditions: time 1 hr after carrageenan
Mus musculus [22] = test: Analgesic activity in albino mouse assessed as forepaw licking/jumping latency time at 10 mg/kg, ip measured after 90 mins by hot plate test (reference value: 2.72 +/- 0.01 sec); assay type: functional; conditions: 1.5 h
Mus musculus [23] = test: Analgesic activity in albino mouse assessed as protection at 10 mg/kg, ip measured after 60 mins by hot plate test (reference value: 0 %); assay type: functional; conditions: 1 h
Rattus norvegicus [24] = test: Anti-inflammatory activity in Wistar rat assessed as inhibition of carrageenan-induced paw edema at 10 mg/kg, ip pretreated for 1 hr followed by carrageenan challenge and measured after 3 hr relative to control (reference value: 0.00 +/-0.1 %); assay type: functional; conditions: time 4 hrs
Mus musculus [25] = test: Analgesic activity in albino mouse assessed as protection at 10 mg/kg, ip measured after 120 mins by hot plate test relative to indomethacin; assay type: functional; conditions: 2 h
Peritoneal macrophage [26] = test: Antiinflammatory activity in […] mouse Peritoneal macrophages assessed as reduction in LPS-induced NO production by measuring reduction in stimulation index at 10 uM preincubated for 1 hr followed by LPS stimulation measured after 24 hrs by Griess method (reference value: 27.31 +/- 2.56 uM); assay type: functional; conditions: time 25 hrs
[27] = Ulcerogenic activity in fasted albino mouse assessed as average severity of ulcers in gastric mucosa at 10 mg/kg, po for 3 days (reference value: 0); assay type: toxicity, organism-based; conditions: in vivo, 72 h, time 3 day
Salmonella typhimurium = test: Antibacterial activity against Salmonella typhimurium ATCC 19430 incubated for 18 hrs by agar dilution assay; assay type: functional, Salmonella enterica subsp. enterica serovar Typhimurium; conditions: Salmonella enterica
[28] = Toxicity in albino mouse assessed as induction of toxic symptoms at 50 to 100 mg/kg, ip measured after 24 hrs; assay type: organism-based; conditions: in vivo, dose 50-100 mg/kg
Mus musculus [29] = test: Analgesic activity in albino mouse assessed as protection at 10 mg/kg, ip measured after 120 mins by hot plate test (reference value: 0 %); assay type: functional; conditions: 2 h
Mus musculus [30] = test: Analgesic activity in albino mouse assessed reduction in acetic acid-induced abdominal writhing by measuring writing reflex at 10 mg/kg, ip pretreated for 1 hr followed by acetic acid challenge and measured starting 5 mins post acetic acid challenge for 10 mins (reference value: 42.4 +/- 1.02); assay type: functional; conditions: time 75 min, 1.25 h
Mus musculus [31] = test: Analgesic activity in albino mouse assessed protection against acetic acid-induced abdominal writhing at 10 mg/kg, ip pretreated for 1 hr followed by acetic acid challenge and measured starting 5 mins post acetic acid challenge for 10 mins relative to control (reference value: 0 %); assay type: functional; conditions: time 75 min, 1.25 h
Rattus norvegicus [32] = test: Anti-inflammatory activity in Wistar rat assessed as inhibition of carrageenan-induced paw edema at 10 mg/kg, ip pretreated for 1 hr followed by carrageenan challenge and measured after 4 hr relative to control (reference value: 0.00 +/-0.4 %); assay type: functional; conditions: time 5 hrs

Row | SMILES | Activity [1] | viability at 10 µM (Splenocyte [2]) | Activity_index (Splenocyte [3]) | Activity (Rattus norvegicus [4]) | inhibition in vivo at 10 mg/kg (Rattus norvegicus [5]) | MIC (Staphylococcus aureus) | Time (Mus musculus [6]) | inhibition in vivo at 10 mg/kg (Rattus norvegicus [7]) | Activity (Mus musculus [8]) | MIC (Pseudomonas aeruginosa) | Time (Mus musculus [9]) | Activity [10] | Activity (Rattus norvegicus [11]) | UI [12] | Activity (Rattus norvegicus [13]) | inhibition in vivo at 10 mg/kg (Rattus norvegicus [14]) | Time (Mus musculus [15]) | Activity (Mus musculus [16]) | MIC (Candida albicans) | inhibition in vivo at 10 mg/kg (Rattus norvegicus [18]) | other results
1 | COc1cc(/C=C/C(=O)/C=C(O)/C=C/c2ccc(OC(=O)CNC(=O)OCC3c4ccccc4-c4ccccc43)c(OC)c2)ccc1OC(=O)CNC(=O)OCC1c2ccccc2-c2ccccc21 | 0 | 68.8% | 1.76 | 0.15 mm | 62% | 1 µg/mL and 1.08 µM | 4.08 s | 91% | 18.7% | 1 µg/mL and 1.08 µM | 3.72 s | 0% | 0.47 mm | 0 | 0.29 mm | 82% | 5.96 s | 93.3% | 2 µg/mL and 2.16 µM | 40% | Activity (Peritoneal macrophage [17]): 31.43%; Activity (Mus musculus [19]): 40.4%; MIC (Streptococcus pyogenes): 1 µg/mL and 1.08 µM; Activity (Rattus norvegicus [20]): 0.78 mm; Activity (Rattus norvegicus [21]): 1.45 mm; Time (Mus musculus [22]): 3.82 s; Activity (Mus musculus [23]): 19.3%; inhibition in vivo at 10 mg/kg (Rattus norvegicus [24]): 74%; Activity (Mus musculus [25]): 100%; Activity (Peritoneal macrophage [26]): 18.73 µM; Activity [27]: 0; MIC (Salmonella typhimurium): 1 µg/mL and 1.08 µM; Activity [28]: Non-Toxic; Activity (Mus musculus [29]): 42%; Activity (Mus musculus [30]): 18; Activity (Mus musculus [31]): 57.5%; inhibition in vivo at 10 mg/kg (Rattus norvegicus [32]): 79%
2 | COc1cc(/C=C/C(=O)/C=C(O)/C=C/c2ccc(OC(=O)[C@@H](CCSC)NC(=O)OC(C)(C)C)c(OC)c2)ccc1OC(=O)[C@@H](CCSC)NC(=O)OC(C)(C)C | 0 | 47.7% | 2.53 | 0.49 mm | 69% | 0.25 µg/mL and 0.301 µM | 5.48 s | 102% | 2.4% | 0.25 µg/mL and 0.301 µM | 4.48 s | 0% | 0.47 mm | 0 | 0.15 mm | 41% | 5.14 s | 87.3% | 0.5 µg/mL and 0.602 µM | 58% | Activity (Mus musculus [19]): 77.2%; MIC (Streptococcus pyogenes): 0.125 µg/mL and 0.15 µM; Activity (Rattus norvegicus [20]): 0.63 mm; Activity (Rattus norvegicus [21]): 1.1 mm; Time (Mus musculus [22]): 4.82 s; Activity (Mus musculus [23]): 60.2%; inhibition in vivo at 10 mg/kg (Rattus norvegicus [24]): 74%; Activity (Mus musculus [25]): 169%; Activity [27]: 0; MIC (Salmonella typhimurium): 1 µg/mL and 1.2 µM; Activity [28]: Non-Toxic; Activity (Mus musculus [29]): 71%; Activity (Mus musculus [30]): 19.6; Activity (Mus musculus [31]): 53.8%; inhibition in vivo at 10 mg/kg (Rattus norvegicus [32]): 89%
3 | COc1cc(/C=C/C(=O)CC(=O)/C=C/c2ccc(O)c(OC)c2)ccc1O [CURCUMIN] | 0.33 | 79.5% | 1.52 | 0.53 mm | 60% | 0.339 µM (≈ 0.125 µg/mL) | 4.62 s | 98% | 0.4% | 0.125 µg/mL and 0.339 µM | 3.46 s | 3.33% | 0.45 mm | 3.99 | 0.21 mm | 36% | 5.04 s | 84.6% | 0.125 µg/mL and 0.339 µM | 12% | Activity (Peritoneal macrophage [17]): 37.11%; Activity (Mus musculus [19]): 66.9%; MIC (Streptococcus pyogenes): 0.125 µg/mL and 0.339 µM; Activity (Rattus norvegicus [20]): 0.82 mm; Activity (Rattus norvegicus [21]): 2.12 mm; Time (Mus musculus [22]): 4.54 s; Activity (Mus musculus [23]): 35.1%; inhibition in vivo at 10 mg/kg (Rattus norvegicus [24]): 75%; Activity (Mus musculus [25]): 76.4%; Activity (Peritoneal macrophage [26]): 17.18 µM; Activity [27]: 0.33; MIC (Salmonella typhimurium): 0.125 µg/mL and 0.339 µM; Activity (Mus musculus [29]): 32.1%; Activity (Mus musculus [30]): 20.3; Activity (Mus musculus [31]): 52.1%; inhibition in vivo at 10 mg/kg (Rattus norvegicus [32]): 85%
